From ChEMBL document CHEMBL1143355, “Aryl sulphonyl amides as potent agonists of the growth hormone secretagogue (ghrelin) receptor” (Bioorg Med Chem Lett, 2009)

How the values were obtained:
[1] = target: Growth hormone secretagogue receptor type 1 (Homo sapiens, UniProt Q92847); assay: Agonist activity at human ghrelin receptor by cell based BACMAM FLIPR assay; assay type: functional
[2] = Mean residence time in Sprague-Dawley rat at 1 mg/kg, iv; assay type: ADME, organism-based; parameters: dose 1 mg/kg, route intravenous; conditions: in vivo
Rattus norvegicus = assay: AUC (0 to 6 hrs) in Sprague-Dawley rat at 3 mg/kg, po; assay type: ADME, organism-based, Plasma; parameters: time < 6 hr, dose 3 mg/kg, route oral; conditions: in vivo
[3] = Half life in Sprague-Dawley rat at 1 mg/kg, iv; assay type: ADME, organism-based; parameters: dose 1 mg/kg, route intravenous; conditions: in vivo
[4] = Tmax in Sprague-Dawley rat at 3 mg/kg, po; assay type: ADME, organism-based; parameters: dose 3 mg/kg, route oral; conditions: in vivo
[5] = Cmax in Sprague-Dawley rat at 1 mg/kg, iv; assay type: ADME, organism-based; parameters: dose 1 mg/kg, route intravenous; conditions: in vivo
[6] = Cmax in Sprague-Dawley rat at 3 mg/kg, po; assay type: ADME, organism-based; parameters: dose 3 mg/kg, route oral; conditions: in vivo
[7] = Total body clearance in Sprague-Dawley rat at 1 mg/kg, iv; assay type: ADME, organism-based; parameters: dose 1 mg/kg, route intravenous; conditions: in vivo
[8] = Volume of distribution at steady state in Sprague-Dawley rat at 1 mg/kg, iv; assay type: ADME, organism-based; parameters: dose 1 mg/kg, route intravenous; conditions: in vivo, read-out: Vdss

Growth hormone secretagogue receptor type 1, sequence (Q92847 whole entry): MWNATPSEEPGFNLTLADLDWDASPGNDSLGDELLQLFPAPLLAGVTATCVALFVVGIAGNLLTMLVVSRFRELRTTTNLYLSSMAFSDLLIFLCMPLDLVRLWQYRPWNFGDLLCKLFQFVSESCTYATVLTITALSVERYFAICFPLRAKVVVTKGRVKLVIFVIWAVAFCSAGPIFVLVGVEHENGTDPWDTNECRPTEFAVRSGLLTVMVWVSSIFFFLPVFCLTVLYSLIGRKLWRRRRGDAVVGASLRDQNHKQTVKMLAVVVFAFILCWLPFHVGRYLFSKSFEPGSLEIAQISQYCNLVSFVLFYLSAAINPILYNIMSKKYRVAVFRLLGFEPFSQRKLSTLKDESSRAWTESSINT

| SMILES | EC50 [1] | further results |
| --- | --- | --- |
| Cc1ccc(-c2ccc(S(=O)(=O)N3CCCC[C@H]3C(=O)N3C[C@@H](C)N[C@@H](C)C3)cc2)o1 | 6.31 nM | – |
| Cc1ccc(-c2ccc(S(=O)(=O)N3C[C@@H](O)C[C@H]3C(=O)N3CC[C@@H](N)C3)cc2F)o1 | 5.01 nM | – |
| Cc1ccc(-c2ccc(S(=O)(=O)N3CCCC[C@H]3C(=O)N3C[C@@H](C)N[C@@H](C)C3)cc2F)o1 | 2.51 nM | – |
| COc1cccc(C(=O)Nc2ccc(S(=O)(=O)N3CCCC[C@H]3C(=O)N3CC[C@H](N)C3)cc2)c1 | 2 nM | – |
| N[C@H]1CCN(C(=O)[C@@H]2CCCCN2S(=O)(=O)c2ccc(-c3cccnc3)cc2)C1 | 316 nM | – |
| N[C@@H]1CCN(C(=O)[C@@H]2CCCCN2S(=O)(=O)c2ccc(-c3ccccc3)cc2)C1 | 15.8 nM | – |
| Cc1ccc(-c2ccc(S(=O)(=O)N3CCNC[C@H]3C(=O)N3CC[C@@H](N)C3)cc2)o1 | 1.26 nM | – |
| Cc1ccc(-c2ccc(S(=O)(=O)N3CCCC[C@H]3C(=O)N3CC[C@@H](N)C3)cc2F)o1 | 0.0501 nM | – |
| N[C@@H]1CCN(C(=O)[C@H]2CCCCN2S(=O)(=O)c2ccc(-c3ccccc3)cc2)C1 | > 5010 nM | – |
| N[C@@H]1CCN(C(=O)[C@@H]2CCCCN2S(=O)(=O)c2ccc(-c3ccco3)c(F)c2)C1 | 3.16 nM | – |
| N[C@H]1CCN(C(=O)[C@@H]2CCCCN2S(=O)(=O)c2ccc(NC(=O)c3ccccc3)cc2)C1 | 20 nM | – |
| N[C@H]1CCN(C(=O)[C@@H]2CCCCN2S(=O)(=O)c2ccc(-c3ccccc3)cc2)C1 | 7.94 nM | – |
| CNC1CCN(C(=O)[C@@H]2CCCCN2S(=O)(=O)c2ccc(-c3ccc(C)o3)cc2)C1 (stereo not given in full) | 10 nM | – |
| Cc1ccc(-c2ccc(S(=O)(=O)N3C[C@H](O)C[C@H]3C(=O)N3CC[C@@H](N)C3)cc2F)o1 | 0.501 nM | – |
| N[C@@H]1CCN(C(=O)[C@@H]2CCCCN2S(=O)(=O)c2ccc(-c3cc(F)ccc3F)cc2)C1 | 1 nM | – |
| N[C@@H]1CCN(C(=O)[C@@H]2CCCCN2S(=O)(=O)c2ccc(-c3cc(Cl)ccc3Cl)cc2)C1 | 0.316 nM | – |
| Cc1ccc(-c2ccc(S(=O)(=O)N3CCCC[C@H]3C(=O)N3CC[C@H](N)C3)cc2F)o1 | 0.158 nM | – |
| N[C@@H]1CCN(C(=O)[C@@H]2CCCCN2S(=O)(=O)c2ccc(-c3ccco3)cc2)C1 | 31.6 nM | – |
| N[C@H]1CCN(C(=O)[C@@H]2CCCCN2S(=O)(=O)c2ccc(NC(=O)c3ccccc3F)cc2)C1 | 3.98 nM | – |
| Cc1ccc(-c2ccc(S(=O)(=O)N3CC[C@H](O)[C@H]3C(=O)N3CC[C@@H](N)C3)cc2F)o1 | 0.2 nM | – |
| Cc1ccc(-c2ccc(S(=O)(=O)N3CCC[C@H]3C(=O)N3CC[C@@H](N)C3)cc2F)o1 | 0.398 nM | MRT [2]: 2.4 h; AUC (Rattus norvegicus): 5 kg·min/L; half-life [3]: 2.4 h; Tmax [4]: 4 h; Cmax [5]: 762 nM; Cmax [6]: 151 nM; clearance [7]: 25 mL/min/kg; Vd [8]: 3.5 L/kg |
| Cc1ccc(-c2ccc(S(=O)(=O)N3CCCC[C@H]3C(=O)N3CCCNCC3)cc2)o1 | 7.94 nM | – |
| NC1CCN(C(=O)C2CCCCN2S(=O)(=O)c2ccc(-c3ccccc3)cc2)C1 (stereo not given) | 31.6 nM | – |
| N[C@H]1CCN(C(=O)[C@H]2CCCCN2S(=O)(=O)c2ccc(-c3ccccc3)cc2)C1 | > 5010 nM | – |
| Cc1ccc(-c2ccc(S(=O)(=O)N3CCCC[C@H]3C(=O)N3CC[C@@H](N)C3)cc2)o1 | 0.251 nM | – |
| N[C@@H]1CCN(C(=O)[C@@H]2CCCCN2S(=O)(=O)c2ccc(Br)cc2)C1 | 398 nM | – |
| Cc1ccc(-c2ccc(S(=O)(=O)N3CC[C@H]3C(=O)N3CC[C@@H](N)C3)cc2F)o1 | 15.8 nM | – |
